Each block holds one compound with its values, some of them ahead of it.
Columns and labels:
[1] = target: T1, Myosin light chain kinase family member 4 (Homo sapiens) (UniProt Q86YV6); assay: Selectivity interaction (Ambit KINOMEscan and KiNATiv profiling in Jurkat cells) EUB0000090b MYLK4; type: cell-based; conditions: at 1 µM
T1 sequence (whole entry): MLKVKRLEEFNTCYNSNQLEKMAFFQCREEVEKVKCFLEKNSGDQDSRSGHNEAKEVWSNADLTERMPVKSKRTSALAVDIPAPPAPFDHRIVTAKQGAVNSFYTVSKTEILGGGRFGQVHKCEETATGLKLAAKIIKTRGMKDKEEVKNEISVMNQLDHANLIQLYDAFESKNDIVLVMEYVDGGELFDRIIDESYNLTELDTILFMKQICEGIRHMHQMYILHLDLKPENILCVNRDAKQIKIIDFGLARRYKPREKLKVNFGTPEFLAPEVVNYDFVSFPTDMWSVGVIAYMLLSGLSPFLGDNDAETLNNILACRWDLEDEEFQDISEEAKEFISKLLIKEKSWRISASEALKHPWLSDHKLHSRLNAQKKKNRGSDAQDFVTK

[2] = target: Serine/threonine-protein kinase Nek6 (Homo sapiens) (UniProt Q9HC98); assay: Selectivity interaction (SelectScreen profiling (Invitrogen)) EUB0000607a NEK6; conditions: at 2 µM
Chain of Serine/threonine-protein kinase Nek6 (Homo sapiens) (Q9HC98 whole entry): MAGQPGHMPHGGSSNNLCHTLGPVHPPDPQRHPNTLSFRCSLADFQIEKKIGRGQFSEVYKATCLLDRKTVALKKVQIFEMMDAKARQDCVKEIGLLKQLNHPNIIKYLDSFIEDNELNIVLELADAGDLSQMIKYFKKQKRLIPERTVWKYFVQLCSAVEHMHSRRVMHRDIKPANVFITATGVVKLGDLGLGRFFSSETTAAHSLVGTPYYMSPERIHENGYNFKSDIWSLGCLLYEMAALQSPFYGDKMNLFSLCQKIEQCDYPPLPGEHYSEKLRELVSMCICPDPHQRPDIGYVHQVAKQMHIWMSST

[3] = target: T2, Mitogen-activated protein kinase 13 (Homo sapiens) (UniProt O15264); assay: Selectivity interaction (Kinase panel (DSF assay)) EUB0001558a MAPK13
T2 sequence (whole entry): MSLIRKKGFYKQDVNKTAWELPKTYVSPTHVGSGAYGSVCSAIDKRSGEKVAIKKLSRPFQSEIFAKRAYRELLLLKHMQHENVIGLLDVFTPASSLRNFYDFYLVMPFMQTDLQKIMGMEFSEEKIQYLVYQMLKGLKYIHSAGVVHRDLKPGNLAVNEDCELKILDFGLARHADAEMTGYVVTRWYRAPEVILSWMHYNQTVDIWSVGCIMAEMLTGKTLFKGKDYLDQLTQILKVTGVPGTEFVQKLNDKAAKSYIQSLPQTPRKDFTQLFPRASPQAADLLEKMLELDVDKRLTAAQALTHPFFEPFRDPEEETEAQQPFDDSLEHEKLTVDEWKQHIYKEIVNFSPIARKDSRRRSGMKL

[4] = target: T3, Rhodopsin kinase GRK7 (Homo sapiens) (UniProt Q8WTQ7); assay: Selectivity interaction (Kinase panel (Invitrogen)) EUB0000639a GRK7; conditions: at 200 nM
T3 sequence (whole entry): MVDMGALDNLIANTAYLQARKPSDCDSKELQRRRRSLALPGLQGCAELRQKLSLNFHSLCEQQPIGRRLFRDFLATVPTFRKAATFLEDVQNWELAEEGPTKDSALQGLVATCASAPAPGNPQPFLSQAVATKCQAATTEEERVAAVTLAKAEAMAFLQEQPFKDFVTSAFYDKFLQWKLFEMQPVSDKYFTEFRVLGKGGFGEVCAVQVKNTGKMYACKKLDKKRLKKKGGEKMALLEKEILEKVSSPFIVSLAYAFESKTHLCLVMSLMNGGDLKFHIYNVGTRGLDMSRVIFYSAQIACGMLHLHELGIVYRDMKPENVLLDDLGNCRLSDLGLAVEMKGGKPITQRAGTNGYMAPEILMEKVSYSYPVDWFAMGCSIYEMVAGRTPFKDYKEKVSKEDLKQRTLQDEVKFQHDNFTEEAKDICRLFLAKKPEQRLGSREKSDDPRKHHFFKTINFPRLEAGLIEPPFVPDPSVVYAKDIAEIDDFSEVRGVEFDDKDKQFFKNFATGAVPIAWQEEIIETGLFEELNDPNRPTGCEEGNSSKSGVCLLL

[5] = target: T4, Testis-specific serine/threonine-protein kinase 1 (Homo sapiens) (UniProt Q9BXA7); assay: Selectivity interaction (KinomeScan (DiscoverX)) EUB0000229b TSSK1B; conditions: at 10 µM
T4 sequence (whole entry): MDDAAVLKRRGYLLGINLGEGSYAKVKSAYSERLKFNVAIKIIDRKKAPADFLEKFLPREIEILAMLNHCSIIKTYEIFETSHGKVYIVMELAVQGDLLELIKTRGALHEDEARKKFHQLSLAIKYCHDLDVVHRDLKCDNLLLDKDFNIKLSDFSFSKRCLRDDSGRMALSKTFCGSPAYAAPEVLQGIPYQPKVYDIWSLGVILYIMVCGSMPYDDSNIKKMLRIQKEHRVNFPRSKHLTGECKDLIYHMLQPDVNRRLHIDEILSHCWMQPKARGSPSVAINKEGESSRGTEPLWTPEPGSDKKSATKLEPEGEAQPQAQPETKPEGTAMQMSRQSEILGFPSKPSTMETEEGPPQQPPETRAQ

[6] = target: T5, Mitogen-activated protein kinase kinase kinase 7 (Homo sapiens) (UniProt O43318); assay: Selectivity interaction (ProQinase) EUB0000171b MAP3K7
T5 sequence (whole entry): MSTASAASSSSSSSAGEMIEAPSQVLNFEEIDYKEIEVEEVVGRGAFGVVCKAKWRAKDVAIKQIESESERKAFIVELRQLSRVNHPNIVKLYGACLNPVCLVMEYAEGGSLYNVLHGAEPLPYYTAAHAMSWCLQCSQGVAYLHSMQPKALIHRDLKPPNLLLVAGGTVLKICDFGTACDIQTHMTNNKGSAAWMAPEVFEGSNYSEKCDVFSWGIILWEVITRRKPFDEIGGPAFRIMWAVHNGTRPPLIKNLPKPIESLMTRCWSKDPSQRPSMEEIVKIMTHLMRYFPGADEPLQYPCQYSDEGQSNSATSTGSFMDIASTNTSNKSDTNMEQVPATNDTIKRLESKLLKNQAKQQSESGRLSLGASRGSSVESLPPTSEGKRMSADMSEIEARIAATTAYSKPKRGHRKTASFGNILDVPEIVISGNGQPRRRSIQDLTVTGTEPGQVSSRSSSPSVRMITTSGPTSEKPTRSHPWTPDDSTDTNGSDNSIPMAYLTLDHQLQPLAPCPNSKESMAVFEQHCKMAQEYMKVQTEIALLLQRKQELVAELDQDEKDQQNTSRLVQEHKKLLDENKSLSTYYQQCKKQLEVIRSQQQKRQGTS

[7] = target: Mitogen-activated protein kinase kinase kinase 4 (Homo sapiens) (UniProt Q9Y6R4); assay: Selectivity interaction (KinomeScan (DiscoverX)) EUB0000092b MAP3K4; conditions: at 10 µM
Chain of Mitogen-activated protein kinase kinase kinase 4 (Homo sapiens) (Q9Y6R4 whole entry): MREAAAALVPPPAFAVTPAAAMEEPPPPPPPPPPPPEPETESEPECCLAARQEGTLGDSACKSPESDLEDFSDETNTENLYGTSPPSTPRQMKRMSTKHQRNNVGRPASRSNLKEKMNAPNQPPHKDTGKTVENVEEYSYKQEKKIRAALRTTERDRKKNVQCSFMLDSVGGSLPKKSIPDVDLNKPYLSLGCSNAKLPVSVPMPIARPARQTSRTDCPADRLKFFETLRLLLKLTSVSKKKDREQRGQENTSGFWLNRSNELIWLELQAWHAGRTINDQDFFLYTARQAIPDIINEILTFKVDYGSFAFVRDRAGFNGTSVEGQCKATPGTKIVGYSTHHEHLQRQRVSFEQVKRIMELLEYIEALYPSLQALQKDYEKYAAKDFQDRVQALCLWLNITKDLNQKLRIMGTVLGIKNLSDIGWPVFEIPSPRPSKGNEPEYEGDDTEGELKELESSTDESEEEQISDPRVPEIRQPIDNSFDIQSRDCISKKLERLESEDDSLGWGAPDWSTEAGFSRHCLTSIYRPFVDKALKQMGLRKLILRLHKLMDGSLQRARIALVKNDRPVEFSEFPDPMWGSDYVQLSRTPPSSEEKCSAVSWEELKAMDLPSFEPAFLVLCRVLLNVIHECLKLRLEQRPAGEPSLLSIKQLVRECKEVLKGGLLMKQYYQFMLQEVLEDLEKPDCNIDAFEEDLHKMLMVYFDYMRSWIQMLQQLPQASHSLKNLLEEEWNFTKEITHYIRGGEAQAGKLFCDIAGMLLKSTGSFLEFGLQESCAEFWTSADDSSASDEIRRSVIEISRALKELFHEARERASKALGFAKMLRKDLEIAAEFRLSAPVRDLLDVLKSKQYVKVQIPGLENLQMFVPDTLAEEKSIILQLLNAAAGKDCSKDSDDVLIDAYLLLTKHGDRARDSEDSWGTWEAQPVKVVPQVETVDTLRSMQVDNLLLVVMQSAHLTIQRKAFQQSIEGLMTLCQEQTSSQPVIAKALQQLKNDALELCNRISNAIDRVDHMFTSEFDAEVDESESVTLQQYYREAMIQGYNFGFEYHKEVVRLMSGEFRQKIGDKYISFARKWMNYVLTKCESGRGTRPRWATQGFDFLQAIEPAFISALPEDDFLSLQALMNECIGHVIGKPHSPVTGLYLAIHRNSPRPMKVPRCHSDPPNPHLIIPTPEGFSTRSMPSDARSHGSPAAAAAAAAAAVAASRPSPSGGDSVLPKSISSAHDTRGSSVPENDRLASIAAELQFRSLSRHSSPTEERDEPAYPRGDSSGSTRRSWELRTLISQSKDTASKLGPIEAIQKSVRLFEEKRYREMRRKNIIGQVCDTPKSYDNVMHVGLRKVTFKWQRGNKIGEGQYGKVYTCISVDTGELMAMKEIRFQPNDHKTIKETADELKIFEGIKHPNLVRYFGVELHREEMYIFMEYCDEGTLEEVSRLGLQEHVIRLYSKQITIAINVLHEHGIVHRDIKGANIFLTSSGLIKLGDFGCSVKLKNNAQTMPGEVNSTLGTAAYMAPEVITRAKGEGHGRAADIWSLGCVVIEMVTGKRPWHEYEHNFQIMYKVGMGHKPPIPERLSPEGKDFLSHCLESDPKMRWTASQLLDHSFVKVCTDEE

[8] = target: Phosphatidylinositol 4-phosphate 5-kinase type-1 alpha (Homo sapiens) (UniProt Q99755); assay: Selectivity interaction (KinomeScan (DiscoverX)) EUB0000695a PIP5K1A; conditions: at 100 nM
Chain of Phosphatidylinositol 4-phosphate 5-kinase type-1 alpha (Homo sapiens) (Q99755 whole entry): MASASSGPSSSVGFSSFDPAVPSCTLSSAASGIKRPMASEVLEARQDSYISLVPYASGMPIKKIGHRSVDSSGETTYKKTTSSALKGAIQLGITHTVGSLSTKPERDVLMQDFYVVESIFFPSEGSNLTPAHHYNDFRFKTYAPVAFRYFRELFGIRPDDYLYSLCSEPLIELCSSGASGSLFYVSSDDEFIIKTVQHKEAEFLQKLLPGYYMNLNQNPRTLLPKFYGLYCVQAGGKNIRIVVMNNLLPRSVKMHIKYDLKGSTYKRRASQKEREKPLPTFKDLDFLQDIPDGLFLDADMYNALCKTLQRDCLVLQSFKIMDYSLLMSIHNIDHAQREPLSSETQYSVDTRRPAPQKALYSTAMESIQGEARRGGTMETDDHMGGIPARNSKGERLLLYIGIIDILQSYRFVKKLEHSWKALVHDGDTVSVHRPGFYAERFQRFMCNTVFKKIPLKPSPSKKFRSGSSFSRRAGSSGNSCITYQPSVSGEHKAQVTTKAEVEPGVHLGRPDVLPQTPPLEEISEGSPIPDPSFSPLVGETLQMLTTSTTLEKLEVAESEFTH

SMILES: CN(C)C/C=C/C(=O)Nc1ccc(C(=O)N2CCCC(Nc3ncc(Cl)c(-c4c[nH]c5ccccc45)n3)C2)cc1 (centres undefined)
% of control [1]: 55%

SMILES: CNC(=O)Nc1ccc(-c2nc(N3CC4CCC(C3)O4)c3cnn(C4CCC5(CC4)OCCO5)c3n2)cc1
% of inhibition [2]: 12%

SMILES: CC(C)(O)[C@H](F)CN1Cc2cc(NC(=O)c3cnn4cccnc34)c(N3CCOCC3)cc2C1=O
dTM [3]: -0.3 K

% of inhibition [4]: 1.87%
SMILES: CC[C@@H]1[C@H](F)C(=O)N[C@@H]1COc1nccc2cc(C(N)=O)c(OC)cc12 [ZIMLOVISERTIB]

SMILES: COc1cc(N(C)c2ccnc3ccc(C(F)(F)F)cc23)cc(OC)c1OC
% binding [5]: 91%

% of control ([6]; at 1 µM): 101% | % of control ([6]; at 5 µM): 77%
SMILES: C=CC(=O)Nc1cccc(C(=O)Nc2ccc(Nc3cc(-c4[nH]c(SC)nc4C)ccn3)cc2)c1

SMILES: CCC(=O)N1CCN(c2ccc(-n3c(=O)ccc4cnc5ccc(-c6cnc7ccccc7c6)cc5c43)cc2C(F)(F)F)CC1
% of control [7]: 47%

SMILES: Cc1cc(F)c(C(=O)Nc2cccc(-c3nncn3C(C)C)n2)cc1-n1cnc(C2CC2)c1
% of control [8]: 78%
